Measured values from patent US7875607B2, “7,8-bicycloakyl-chroman derivatives” (Ampere Life Sciences, Inc., priority 2004, dated 2011).

Legend:
[1] = test system: MPTP treated C57/BL6 mice; assay: MPTP animal model, pole test; format: in vivo, mouse; conditions: for effect on the functional deficit produced by MPTP: 30 mg/kg/day, each of days 1-3
Method: MPTP/MPP^+-induced neurodegeneration of dopaminergic neurons is a well characterized model which is therefore widely used to understand the pathogenesis of Parkinson's disease. The compounds were tested against MPTP/MPP^+ induced neuronal death in vitro and in vivo as shown in the following examples. In vitro evaluation of protection against mitochondrial dysfunction is carried out using substantia nigra-derived dopaminergic progenitor cell line (as described in Son J H, et al J W. (1999) J Neurosci, 19:10-20), exposed to 1-methyl-4-phenylpyridinium (MPP^+). In vivo evaluation was carried out using mice that had been treated with 1-methyl-4-phenyl-1,2,3,6-tetrahydropyridine (MPTP), a neurotoxin. […] In a number of species, including humans, […] and rodents, MPTP produces an irreversible and severe parkinsonian syndrome which includes virtually all the clinical features of the disease.
Male C57/BL6 mice (Harlan, Ind.), weight 25-30 g, were used in all studies. MPTP-HCl (Sigma) was administered i.p. according to one of the following protocols. The maximum volume which was given per injection is 200 μL. In all studies, animals were euthanized with carbon dioxide and, brains removed for subsequent determination of dopamine depletion where appropriate.
The pole test evaluates motor co-ordination.
A rough surfaced metal pole (diameter 8 mm, height 50 cm) protruding from a cage filled with animal bedding was used for this test. Animals were placed head upwards at the top of the pole. They were required to turn and descend face downwards and the time taken for this was recorded (latency to reach bedding). Timing was started when the individual animal gripped the top of the pole and was stopped when all four limbs contacted the bedding.
All test compounds were administered ip. The maximum volume which was given per injection was 200 μL. Compounds were dosed up to twice daily, two days prior and 7 days post MPTP treatment.
A baseline reading was taken for each animal one day prior to MPTP treatment. All subsequent readings were normalized to the individual animal's baseline. Values were expressed as a percent baseline.
Data is percent baseline and expressed as mean±std dev: […]
Compound and vehicle given for 9 days in total, 2 days prior to MPTP and 7 days after MPTP treatment. L-DOPA given 1 hour prior to the pole test each day.

[2] = test system: IL-1beta production in mouse microglial cell line; assay: Interleukin-1β microglial cell assay; format: cell-based; conditions: LPS 10 μg/ml and IFN gamma 10 ng/ml, 24 hours, read-out: EC50, inhibition of IL-1beta production
Method: This assay measures the release of IL-1β from a mouse microglial cell line following an inflammatory challenge with LPS and interferon-gamma. The ability of test articles to inhibit microglial cell activation and IL-1β release is determined by co-incubation of the test article with the inflammatory challenge.
Mouse microglial cells were seeded in poly-D-lysine coated 96-well plates at a density of 10,000 cells/well and allowed to attach for 24 hours. Cells were stimulated by addition of LPS (10 μg/ml) and IFN gamma (10 ng/ml) in the presence or absence of test article. The cells were then incubated for 24 hours at 37° C., after which time the media was removed and used for cytokine determination as described below.
Viability of mouse microglial cells after exposure to the test article was determined using a fluorescent viability dye, Cell Tracker Green. Cell Tracker Green was used at a working concentration of 5 μM in 1×HBSS. Cells were washed once with HBSS (200 μl/well) and 100 μl Cell Tracker Green was added to each well. Cells were then incubated at 37° C. for 30 minutes, after which time the Cell Tracker was removed and the cells were washed once with HBSS (200 μl/well). 100 μl fresh HBSS was added to each well and the plate was read on a Fluoroskan plate reader using an excitation wavelength of 485 nm and an emission wavelength of 538 nm.
Solutions: • Wash Buffer: PBS 1 L+500 μl Tween 20 (final 0.05%) pH 7.2-7.4. • Blocking Buffer: 500 ml PBS+5 g BSA V (1%)+25 g Sucrose (5%)+0.25 g Sodium Azide (0.05%). • Reagent Diluent: 500 ml PBS+5 g BSA V (1%) pH 7.2-7.4 and filter sterilize through 0.2 μm. • Stop Solution: 2N sulfuric acid.
Duo Set Preparations: • 1. The IL-1β capture antibody was reconstituted in 1 ml of PBS to give a final concentration of 720 μg/ml, and the working concentration was 4 μg/ml. For coating one 96-well plate (at 100 μl/well) 56 μl of the 720 μg/ml stock was diluted into 10 ml of PBS. • 2. The IL-1β standards were reconstituted in 0.5 ml of Reagent Diluent (70 ng/ml). For a high standard of 1 ng/ml (2 wells at 100 μl each+enough for series dilution) 7.1 μl of the 70 ng/ml standard were diluted into 0.5 ml of Reagent Diluent • 3. The IL-1β detection antibody was reconstituted in 1 ml of Reagent Diluent to give a final concentration of 18 μg/ml and the working concentration is 100 ng/ml. For one 96-well plate (at 100 μl/well) 56 μl of the 18 μg/ml stock was diluted into 10 ml of Reagent Diluent.
• The Costar EIA Hi-binding plate was coated with capture antibody at 4 μg/ml. Each well was coated with 100 μl, and the plate was sealed and incubated overnight at room temperature. • Each well was aspirated and washed 3× with Wash Buffer. Each well was filled to the top, dispensed, and any remaining buffer was removed by inverting the plate and gently blotting against clean paper towels. • Non-specific binding sites were blocked by adding 300 μl of Blocking Buffer to each well, and after sealing incubating for at least 1 hour at room temperature. • After washing the plate was now ready for the samples. Assay Procedure: • 100 μl of either standard or sample were added in each well of the capture-coated and pre-blocked plate. The plate was sealed and incubated for 2 hours at room temperature, followed with washing. • 100 μl of the detection antibody (10 ng/ml) were added to each well. […]

[3] = target: T1, human recombinant 5-lipoxygenase (Homo sapiens, UniProt P09917); assay: 5-Lipoxygenase enzyme assay; format: biochemical; conditions: 70 μM arachidonic acid, pH 7.4
T1 construct: purchased Cayman 60402
T1 sequence (P09917 1-674): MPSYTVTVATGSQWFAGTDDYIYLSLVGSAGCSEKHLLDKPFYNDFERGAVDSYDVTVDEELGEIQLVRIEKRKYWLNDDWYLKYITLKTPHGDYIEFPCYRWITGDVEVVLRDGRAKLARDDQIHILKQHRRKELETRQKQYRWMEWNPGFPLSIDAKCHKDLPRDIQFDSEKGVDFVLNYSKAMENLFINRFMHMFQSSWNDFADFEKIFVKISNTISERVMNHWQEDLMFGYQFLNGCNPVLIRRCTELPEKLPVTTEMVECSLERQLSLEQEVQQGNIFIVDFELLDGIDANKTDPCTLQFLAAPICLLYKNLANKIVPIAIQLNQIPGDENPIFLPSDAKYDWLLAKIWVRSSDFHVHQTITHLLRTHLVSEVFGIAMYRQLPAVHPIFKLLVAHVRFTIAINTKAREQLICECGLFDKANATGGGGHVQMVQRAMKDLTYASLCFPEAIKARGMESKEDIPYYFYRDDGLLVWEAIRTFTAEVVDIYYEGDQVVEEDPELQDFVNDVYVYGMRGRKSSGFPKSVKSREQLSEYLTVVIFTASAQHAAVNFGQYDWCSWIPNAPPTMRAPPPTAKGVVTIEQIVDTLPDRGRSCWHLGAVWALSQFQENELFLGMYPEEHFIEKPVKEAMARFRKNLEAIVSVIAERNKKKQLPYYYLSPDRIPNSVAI
In short: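 Human recombinant 5-LO (0.5 U) with compound in 50 mM Tris-HCl pH 7.4 reacted with 70 μM arachidonic acid for 10 min at room temperature. Hydroperoxide formation was read via FOX xylenol orange complex at 620 nm after 1 h; compounds at 5 concentrations from 10 μM, in triplicate.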

[4] = test system: dopaminergic neuronal cell line; assay: High glutamate-induced oxidative stress assay (HGOS); format: cell-based; conditions: Mus musculus; 30 mM glutamate, 16 hrs; read-out: EC50, protection against HGOS cell injury and cell death
In short: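 Mouse dopaminergic cells (passage ≤ p11) were grown 72 h at 33 °C, washed in HBSS, then exposed 16 h at 37 °C to compounds in DMEM-No Glu with 1 mM glucose and 30 mM glutamate. Surviving cells were stained 30 min with 5 μM Cell Tracker Green and fluorescence read at 485/538 nm.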

[5] = L-DOPA given 1 hour prior to the pole test, mean±std dev

Row | Compound | effect on the functional deficit produced by MPTP [1] | EC50 [2] [µM] | also measured
1 | CC1(CCC(=O)O)CCc2cc(O)c3c(c2O1)C1CCC3C1 (stereo not shown) [3-(6-Hydroxy-2-methyl-3,4,7,8,9,10-hexahydro-7,10-methano-2H-benzo[h]chromen-2-yl)-propionic Acid] | significantly reduced the functional deficit produced by MPTP | – | –
2 | CC1(CCC(=O)O)CCc2cc(O)c3c(c2O1)C1CCCC3CC1 (stereo not shown) [3-(6-Hydroxy-2-methyl-3,4,7,8,9,10-hexahydro-7,10-propano-2H-benzo[h]chromen-2-yl)-propionic Acid] | – | ≤ 20 | –
3 | COC(=O)CCC1(C)CCc2cc(O)c3c(c2O1)C1CCC3C1 (stereo not shown) [3-(6-Hydroxy-2-methyl-3,4,7,8,9,10-hexahydro-7,10-methano-2H-benzo[h]chromen-2-yl)-propionic Acid Methyl Ester] | significantly reduced the functional deficit produced by MPTP | – | IC50 [3]: ≤ 5 µM
4 | CC(=O)Oc1c(CC=C(C)C)c2c(c3c1C1CCC3C1)OC(C)(C)CC2 (stereo not shown) [Acetic acid 2,2-dimethyl-5-(3-methyl-but-2-enyl)-3,4,7,8,9,10-hexahydro-7,10-methano-2H-benzo[h]chromen-6-yl ester] | – | ≤ 20 | EC50 [4]: ≤ 1 µM
5 | N[C@@H](Cc1ccc(O)c(O)c1)C(=O)O [L-DOPA] | – | – | pole test, percent baseline, Day 1 [1, 5]: 110 ± 13.2 percent baseline; pole test, percent baseline, Day 2 [1, 5]: 97.9 ± 20.0 percent baseline; pole test, percent baseline, Day 3 [1, 5]: 100.1 ± 14.8 percent baseline
6 | CC(C)=CCc1c(O)c2c(c3c1CCC(C)(CCC(=O)O)O3)C1CCC2C1 (stereo not shown) [3-[6-hydroxy-2-methyl-5-(3-methyl-but-2-enyl)-3,4,7,8,9,10-hexahydro-7,10-methano-2H-benzo[h]chromen-2-yl]-propionic acid] | – | ≤ 20 | –
